Source: patent US11827628B2, “Compositions and methods for inhibition of the JAK pathway” (Rigel Pharmaceuticals, Inc., priority 2005, dated 2023)

How the values were obtained:
[1] = tested on: up-regulation of ICAM-1 (CD54) by IFNγ in A549 lung epithelial cells; assay: A549 Epithelial Line Stimulated with IFNγ (ICAM-1 surface expression, FACS); assay type: cell-based, human; details: A549 epithelial line stimulated with IFNγ; ICAM-1 expression by FACS; read-out: IC50, Example 43
Method in brief: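 ICAM-1 (CD54) flow cytometry on live-gated A549 cells, geometric mean versus dose giving EC50. Cells received IFNγ at 75 ng/mL for 24 h after a 1 h compound pre-treatment spanning 30 μM to 14 nM in medium with 5% FBS and 0.3% DMSO.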

Primary human T-cells = assay: Primary Human T-Cell Proliferation Assay Stimulated with IL-2 (CellTiter-Glo); assay type: cell-based; details: primary human T-cell proliferation stimulated with IL-2; read-out: IC50, Example 42
Method in brief: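 IC50 derived from CellTiter-Glo ATP signal after 72 hours of IL-2-driven proliferation at 37° C. Cells: primary human T-cells from blood, stimulated beforehand 3-4 days on anti-CD3/anti-CD28 with IL-2, then rested from IL-2 before compound exposure in duplicate; IL-2-free wells served as unstimulated control.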

SMILES	IC50 [1] [µM]	IC50 (Primary human T-cells) [µM]
Cc1cc(Nc2nc(Nc3ccc(S(N)(=O)=O)cc3)ncc2F)ccc1OC(C)C#N (racemic) [Compound I-60, Racemic N2-(4-Aminosulfonyl)phenyl-N4-[4-(1-cyano)ethoxy-3-methyl]phenyl-5-fluoro-2,4-pyrimidinediamine]	7.89	2.17
COc1cc(Nc2ncc(F)c(Nc3ccc(OC(C)C#N)cc3)n2)ccc1S(N)(=O)=O (racemic) [Compound I-70, Racemic N2-(4-Aminosulfonyl-3-methoxy)phenyl-N4-[4-(1-cyano)ethoxy]phenyl-5-fluoro-2,4-pyrimidinediamine]	3.43	0.573
Cc1ccc(Nc2ncc(F)c(Nc3ccc(OCC#N)c(Cl)c3)n2)cc1S(N)(=O)=O [Compound I-43, N2-(3-Aminosulfonyl-4-methylphenyl)-N4-(3-chloro-4-cyanomethoxypheny)-5-fluoro-2,4-pyrimidinediamine]	36.7	0.183

More lines, main results first:

IC50 [1] [µM]	SMILES	IC50 (Primary human T-cells) [µM]
10.1	CNS(=O)(=O)c1cc(Nc2ncc(F)c(Nc3ccc(Cc4ccncc4)cc3)n2)ccc1C [III-75, 5-Fluoro-N2-[3-(N-methylaminosulfony)-4-methylphenyl]-5-fluoro-N4-[4-(4-pyridinylmethyl)phenyl]-2,4-pyrimidinediamine]	0.22
12.9	CCC(=O)NS(=O)(=O)c1cccc(Nc2ncc(F)c(Nc3ccc(OCc4nc(C)no4)cc3)n2)c1 [Compound I-273]	0.193
